Ends that are not written are not given here.
How the values were obtained:
potassium channel = test: voltage-clamp study of potassium channel blockade in dorsal root ganglion cells; format: cell-based; conditions: concentrations of up to 100 micromolar, chick embryo dorsal root ganglion cells
Source text: (§1) The mechanism of action of all synthetic peptides was verified by three independent essays: "in vivo" challenge by injection of albino mice (strain CD1) with different amounts of synthetic peptides; liberation of radioactive (tritiated) gamma-amino-butyric acid from mouse brain synaptosomes; and confirmation of the results with electrophysiological experiments, through voltage-clamp technique, in chick embryo dorsal root ganglion cells maintained in "in vitro" culture.

BALB/c mice = BALB/c mice immunized for two months, immunodiffusion against NTX 1-39 coupled to MSA, FIG. 3
Source text: A group of ten mice were immunized with each peptide and a second group of mice were immunized with each peptide coupled to mouse serum albumin as a carrier molecule.

mouse brain synaptosomes = test: release of tritiated GABA from mouse brain synaptosomes; format: cell-based; conditions: for effect on GABA (neurotransmitter) release: mouse brain synaptosomes preloaded with 3H-GABA, FIG. 2
Source text: as §1
In the experiments involving release of neurotransmitters, mouse brain synaptosomes were preloaded with radioactive gamma-amino-butyric acid (2, 3, 3H-GABA) and were placed in Millipore filters ([…]) in perfusion chambers, each one containing 0.2 to 0.3 mg. of synaptosomal protein. The fractions from the perfusate (0.5 ml. each) were collected by means of a peristaltic pump at one minute intervals. After 6 minutes, a solution containing synthetic polypeptides was added to the experimental chambers and the radioactivity release was counted in an apparatus for measuring radioisotopes. […] The liberation of GABA per minute is expressed as a percentage of the total radioactivity present in the synaptosomes at the beginning of the experiment.

albino mice (strain CD1) = test: "in vivo" challenge / lethality tests of synthetic peptides by injection of mice; conditions: for lethality test outcome: mouse, in vivo
[1] = tested on: mice challenged with Noxiustoxin; conditions: challenge with effective lethal dose of Noxiustoxin (150 g per mouse)
[2] = dose 200 g (so in the source), intraventricularly

Q: Which results are given for “Methionine-Asparagine-Glycine-Lysine-Cysteine-Lysine-Cysteine-Tyrosine-Asparagine-Asparagine [NTX 30-39]”?
A: change in the potassium currents (potassium channel): no change; immunogenicity (BALB/c mice): immunogenic

Q: How did the “effect on GABA (neurotransmitter) release” value (mouse brain synaptosomes) turn out when “Noxiustoxin (TIINVKCTSPKQCSKPCKELYGSSAGAKCMNGKCKCYNN; UniProt P08815 1-39, looked up) [Native NTX]” was run?
A: The value was “increases neurotransmitter release”.

Q: What about the “intoxication symptoms and outcome” value (albino mice (strain CD1); dose of 40 g per 20 grams of mouse body weight) of the same substance?
A: Its value is “generally produces death”.

Q: What about the lethality test outcome (albino mice (strain CD1)) of the same substance?
A: Its lethality test outcome is “Toxic”.

Q: What about the lethality test outcome (albino mice (strain CD1); ip) of the same substance?
A: The lethality test outcome was “Toxic”.

Q: What about the lethality test outcome (albino mice (strain CD1); sc) of the same substance?
A: The lethality test outcome was “Toxic”.

Q: For “TIINVKCTS [NTX 1-9, Threonine-Isoleucine-Isoleucine-Asparagine-Valine-Lysine-Cysteine-Threonine-Serine]”, which time to death (albino mice (strain CD1); dose 100 g (so in the source), intraventricularly) is on record?
A: The time to death was ≤ 20 h.

Q: And the time to convulsions (albino mice (strain CD1); [2])?
A: The time to convulsions was ≤ 12 min.

Q: What about the time to death (albino mice (strain CD1); [2]) of the same substance?
A: Its time to death is < 0.333 h.

Q: For “Threonine-Isoleucine-Isoleucine-Asparagine-Valine-Lysine-Cysteine-Threonine-Serine-Proline-Lysine-Glutamine-Cysteine-Serine-Lysine-Proline-Cysteine-Lysine-Glutamic Acid-Leucine [NTX 1-20]”, which “effect on GABA (neurotransmitter) release” value (mouse brain synaptosomes) is on record?
A: Its value is “increases neurotransmitter release”.

Q: With “Threonine-Isoleucine-Isoleucine-Asparagine-Valine-Lysine-Cysteine-Threonine-Serine-Proline-Lysine-Glutamine-Cysteine-Serine-Lysine-Proline-Cysteine-Lysine-Glutamic Acid-Leucine-Tyrosine-Glycine-Serine-Serine-Alanine-Glycine-Alanine-Lysine-Cysteine-Methionine-Asparagine-Glycine-Lysine-Cysteine-Lysine-Cysteine-Tyrosine-Asparagine-Asparagine [NTX 1-39]” as the substance, how does the “blockade of potassium permeability / potassium channels” value (mouse brain synaptosomes; excitable membranes such as brain synaptosomes) read?
A: Its value is “blocks potassium permeability”.

Q: And the immunogenicity (BALB/c mice)?
A: Its immunogenicity is “immunogenic”.

Q: What about the “survival of immunized population” value [1] of the same substance?
A: Its value is “more than 75%”.

Q: Which immunogenicity (BALB/c mice) does the source give for “Tyrosine-Glycine-Serine-Serine-Alanine-Glycine-Alanine-Lysine-Cysteine-Methionine-Asparagine-Glycine-Lysine-Cysteine-Lysine-Cysteine-Tyrosine-Asparagine-Asparagine [NTX 21-39]” here?
A: The immunogenicity was “immunogenic”.
